Assay results reported in BindingDB's records for PubMed 8078486 (Eli Lilly, 1994).

Tests used:
[1] = biological target: 5-hydroxytryptamine receptor 2B (Homo sapiens, UniProt P41595)
[2] = biological target: 5-hydroxytryptamine receptor 2B (Rattus norvegicus, UniProt P30994)
Chain of 5-hydroxytryptamine receptor 2B (Rattus norvegicus, UniProt P30994) (P30994 whole entry): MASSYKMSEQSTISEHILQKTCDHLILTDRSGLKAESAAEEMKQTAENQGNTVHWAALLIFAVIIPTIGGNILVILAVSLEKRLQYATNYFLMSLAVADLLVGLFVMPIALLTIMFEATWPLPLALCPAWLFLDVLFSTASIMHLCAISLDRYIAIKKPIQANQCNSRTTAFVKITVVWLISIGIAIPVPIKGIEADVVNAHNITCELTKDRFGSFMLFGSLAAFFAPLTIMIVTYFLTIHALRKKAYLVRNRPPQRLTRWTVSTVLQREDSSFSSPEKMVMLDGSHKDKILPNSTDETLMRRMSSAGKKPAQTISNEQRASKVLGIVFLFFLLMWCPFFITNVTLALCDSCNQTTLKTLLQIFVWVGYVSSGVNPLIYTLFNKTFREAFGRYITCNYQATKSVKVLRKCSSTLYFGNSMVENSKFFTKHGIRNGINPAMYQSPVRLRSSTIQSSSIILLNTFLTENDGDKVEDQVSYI

Chain of 5-hydroxytryptamine receptor 2B (Homo sapiens, UniProt P41595) (P41595 whole entry): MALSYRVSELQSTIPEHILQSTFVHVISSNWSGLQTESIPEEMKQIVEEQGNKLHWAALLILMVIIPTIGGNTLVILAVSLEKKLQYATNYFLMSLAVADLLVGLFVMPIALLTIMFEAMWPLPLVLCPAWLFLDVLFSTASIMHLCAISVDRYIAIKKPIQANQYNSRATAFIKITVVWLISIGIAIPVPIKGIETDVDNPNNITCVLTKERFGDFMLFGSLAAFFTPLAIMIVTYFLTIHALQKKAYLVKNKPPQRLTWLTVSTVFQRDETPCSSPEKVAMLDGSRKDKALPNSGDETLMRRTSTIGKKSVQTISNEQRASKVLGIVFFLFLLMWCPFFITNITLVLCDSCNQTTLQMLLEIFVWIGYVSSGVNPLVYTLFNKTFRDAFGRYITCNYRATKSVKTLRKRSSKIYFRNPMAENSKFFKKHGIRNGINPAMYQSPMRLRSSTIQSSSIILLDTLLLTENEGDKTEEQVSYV

Compound `Cn1cc(CCN)c2cc(O)ccc21` [5-HT,omega-N-Me] has a Ki [1] of 11.9 nM.
For `O=C(CCCN1CCC2(CC1)C(=O)NCN2c1ccccc1)c1ccc(F)cc1` [8-[4-(4-fluorophenyl)-4-oxidanylidene-butyl]-1-phenyl-1,3,8-triazaspiro[4.5]decan-4-one], the Ki [1] was 697 nM.
`COc1cc(CC(C)N)c(OC)cc1I` (centres undefined) [[125I]2,5-dimethoxy-4-iodoamphetamine] showed a Ki [2] of 26.6 nM and a Ki [1] of 19.9 nM.
